US20250228978A1, “ENGINEERING SUICIDE GENE APPROACHES TO IMPROVE CHEMOTHERAPEUTIC RESPONSE IN CANCER” (University of Virginia Patent Foundation, priority 0001, published 2025)

Columns and labels:
[1] = test system: U87 MG cells expressing AKT-gen2; test: Effect of chemotherapy on AKT-gen2 SGT (FLAG) expression; format: cell-based; conditions: 48 hr; for FLAG expression of AKT-gen2 SGT vs control: carboplatin 200 μM or TMZ 300 μM, immunoblot
Protocol: U87 MG cells expressing AKT-gen2 were treated with carboplatin (200 μM), TMZ (300 μM), or DMSO, and lysed after 48 hours. Densitometry was used to quantify the GAPDH-normalized FLAG signal.
Cells were also treated with carboplatin (125 μM) or DMSO for 48 hours and immunofluorescence microscopy was performed using antibodies against the proteins as shown in FIG. 29B. The expression of each variant was quantified as the mean FLAG expression on a per-cell basis.
(§1) To determine if a CK2-regulated SGT would cooperate with chemotherapies used to treat glioblastoma, we measured the response of AKT-gen2 transductants to a combination of GCV with temozolomide (TMZ) or carboplatin. We hypothesized that a synergistic effect could occurs because CK2 contributes to DNA damage response and responds to stress signals; it seemed sensible that this could drive higher CK2 activity26,27,29.
[…]. We further examined the extent of carboplatin-mediated effects on CK2 expression increase through immunofluorescence microscopy (FIG. 29B). AKT-gen2 transductants were plated in 96-well glass-bottomed plates for imaging and treated with a reduced carboplatin concentration (125 μM) to promote the retention of adherent cells.
Because we observed increased CK2α and CK2α′ in carboplatin-treated cells (FIGS. 27A, 36A, and 36B), we next examined if the carboplatin-dependent increase in AKT-gen2 expression relies on CK2 expression. In U87 MG AKT-gen2 transductants expressing CK2 (α/α′ catalytic subunits) or control shRNA, CK2α knockdown abrogated the carboplatin-mediated increase in SGT expression (FIG. 29C).

CK2α and CK2α′ = test: CK2 catalytic subunit expression after TMZ or carboplatin (immunofluorescence); format: cell-based; conditions: U87 MG cells, drug treated
Protocol: FIGS. 36A and 36B. Effect of TMZ or carboplatin on CK2 expression. U87 MG cells were subjected to immunofluorescence microscopy using antibodies against the two CK2 catalytic (FIG. 36A: CK2α, FIG. 36B: CK2α′) subunits. Image is representative of n=3 replicates and data are plotted as mean±sd. A Student's t test was applied to determine the significance of observed differences; *, **, and *** indicate p=0.05, 0.01, or 0.001, respectively.
as §1

[2] = test system: U87 MG AKTgen2 transductants; test: Cell death by flow cytometry (TO-PRO-3), carboplatin pre-treatment followed by GCV; conditions: carboplatin 200 μM two days and/or GCV 50 μM three days
Protocol: Flow cytometry for cell death quantification. For cell death experiments, cells were plated in 6-well plates, and cell treatments were performed as described in figure legends. At the conclusion of experiments, floating and adherent cells were collected, resuspended in PBS containing TO-PRO-3 (Life Technologies, 1:10,000), and stored on ice until analysis. Within an hour of collection, cells were analyzed for TO-PRO-3 permeability with a FACSCalibur cytometer (BD Biosciences). Data collected from flow cytometry experiments was analyzed in R using the FlowCore, ggCyto, and OpenCyto packages.
Cells expressing AKT-gen2 were also pre-treated with DMSO or carboplatin (200 μM) for two days, followed by treatment with DMSO or GCV (50 μM) administration for three days. Cell death was then measured by flow cytometry through TOPRO staining.

[3] = test system: G816 cells (glioma-initiating cell line); test: p38-regulated HSVtk constructs: FLAG abundance; format: cell-based, human; conditions: for FLAG expression of FLAG-NLS-HSVtk-MEF2A: two days, SB 203580 10 μM, trametinib 50 nM
Protocol: Referring to FIG. 18B, four designs tested included peptide sequences from the MAPK targets CHOP, MEF2A, p21, and FRA1. […] Sequences shown in blue were taken from proteins primarily phosphorylated by p38, while domains in gray were taken from the original FRA 1-PEST PEST design. The ERK recognition sequence was removed from these designs to improve specificity toward p38. G816 cells (glioma-initiating cell line) expressing each of the four HSVtk constructs were grown in 21% oxygen or 1% oxygen (hypoxia), with or without SB 203580 (p38 inhibitor, 10 μM for two days. Hypoxic induction of p38 phosphorylation promoted protein stabilization, which was abrogated with the addition of a p38 inhibitor to varying degrees for each construct.
Referring to FIG. 22A, G816-FLAG-NLS-HSVtk-MEF2A cells were treated with DMSO (vehicle), GCV (50 μM), or TMZ (500 μM) for up to 48 hours.
Referring to FIG. 22C, G816-FLAG-NLS-HSVtk-MEF2A cells were treated with DMSO (vehicle), SB 203580 (p38 inhibitor (p38i), 10 μM), or trametinib (MEK inhibitor (MEKi), 50 nM), in addition to TNFα, GCV, or TMZ for two days.

[4] = test system: cells expressing yCD-FIRE; test: yCD-FIRE expression and 5-FC cell killing; format: cell-based

## N.N.O=C([O-])C1(C(=O)[O-])CCC1.[Pt+2] [Carboplatin, carboplatin]
[1]; CK2α knockdown, carboplatin 200 μM
  carboplatin-mediated increase in SGT expression: abrogated
[1]; carboplatin 125 μM, immunofluorescence
  FLAG expression of AKT-gen2 SGT: significant enhancement in FLAG expression
[1]
  FLAG expression of AKT-gen2 SGT vs control: significant increase in FLAG expression
[1]; cells expressing CK2α′ shRNA, carboplatin 200 μM
  carboplatin-mediated change in SGT accumulation: small but insignificant increase
[1]; cells expressing control shRNA, carboplatin 200 μM
  carboplatin-mediated change in AKT-gen2 expression: significant increase
CK2α and CK2α′
  CK2α and CK2α′ expression: stronger increase
[2]
  reduction in cell viability: ~15%

## Nc1nc(=O)c2ncn(COC(CO)CO)c2[nH]1 [GCV, ganciclovir]
[3]; GCV 50 μM or TMZ 500 μM, 48 hours
  FLAG abundance of FLAG-NLS-HSVtk-MEF2A relative to vehicle: increased FLAG abundance
[3]
  FLAG expression of FLAG-NLS-HSVtk-MEF2A: increased

## C[S+]([O-])c1ccc(-c2nc(-c3ccncc3)c(-c3ccc(F)cc3)[nH]2)cc1 (stereo not drawn) [SB 203580]
[3]
  FLAG expression of FLAG-NLS-HSVtk-MEF2A: attenuated in some cases

## Cn1nnc2c(C(N)=O)ncn2c1=O [TMZ, temozolomide]
[1]
  FLAG expression of AKT-gen2 SGT vs control: no effect

## Nc1nc(=O)[nH]cc1F [Variant 5-FC, 5-fluorocytosine]
[4]; cells expressing yCD-FIRE
  cell viability in response to 5-FC plus growth factors: decreases
[4]; cells treated with growth factors vs not treated
  5-FC IC50: lower

## CC(=O)Nc1cccc(-n2c(=O)n(C3CC3)c(=O)c3c(Nc4ccc(I)cc4F)n(C)c(=O)c(C)c32)c1 [trametinib, N-[3-[3-cyclopropyl-5-(2-fluoro-4-iodoanilino)-6,8-dimethyl-2,4,7-trioxopyrido[4,3-d]pyrimidin-1-yl]phenyl]acetamide]
[3]
  FLAG expression of FLAG-NLS-HSVtk-MEF2A: promoted PEST stabilization

## TNFα
[3]
  FLAG expression of FLAG-NLS-HSVtk-MEF2A: increased
